What all share (format): cell-based, human
In test [1] the test system is CD4+CD25- T cell proliferation. The test is described as follows: Coculture of effector T cells and Treg at low ratio on immobilized NOTCH ligands, with or without anti-TGF-β. More on the design: Mean inhibition of T cell proliferation / Mean inhibition of T cell proliferation in the presence of anti-TGF-β mAbs: unit of the concentration uncertain. How it is done: FIG. 2: NOTCH suppresses the proliferation of CD4^+CD25^− T cells through TGF-β • A) CD4^+CD25^−T cells were cultured for 5 days in coated wells with anti-CD3 and NOTCH ligands (5 μg/ml) or IgG control (5 μg/ml) in the presence of Treg at ratio 1:16. Anti-TGF-β or IgG control mAbs (2.5 μg/ml) were added at the beginning of the co-culture. The data represent the mean±SEM. * indicates P<0.05. • B) CD4^+CD25^−T cells were cultured for 5 days in coated wells with anti-CD3 and NOTCH ligands (5 μg/ml) or IgG control (5 μg/ml). Low dose of TGF-β (0.1 ng/ml) was added. The data represent the mean±SEM.
Peripheral blood mononuclear cells were separated by Ficoll-Hypaque centrifugation (Amersham Biosciences) from buffy coats obtained from healthy blood donors (EFS, Créteil). CD4^+ CD25^− T cells and CD4^+CD25^high T cells were isolated using a CD4^+ T cell enrichment column and a human CD4^+CD25^+ Treg isolation kit purchased from Miltenyi Biotec. CD4^+CD25^− cells and CD4^+CD25^+ cells were enriched to greater than 95% purity. Cells were plated in media at a concentration of 1.25×10^5 to 5×10^5 cells per ml in a 96-well round-bottom plates coated with 1 μg/ml of anti-CD3 (UCHT1) and 5 μg/ml of NOTCH Ligand (DL-1-Fc, DL-4-Fc and Jagged-1-Fc are a generous Gift from Dr. Sakano).
Percentage of inhibition was calculated as follows: 1−(mean cpm of co-culture wells divided by mean cpm of CD4^+CD25^− cells cultured alone)×100.
In sensitizing assays CD4^+CD25^− and CD4^+CD25^high were pre-incubated during 16 hours on coated NOTCH Ligand. Cells were also collected, washed and incubated alone or with Treg and stimulated as described above. Some experiments were performed in the presence of anti-TGF-β or IgG control (2.5 μg/ml).
The implication of NOTCH1 on effector T cell responses in the presence of Treg through a TGF-β signalling mechanism has not yet been elucidated. To test this, a coculture experiments of effector T cells and Treg at a low ratio (ratio 1:16) in the presence of immobilized NOTCH ligands DL1, DL4 and Jagged-1 or Ig controls at […] was performed. […]

Test [2] has as its system TGF-βRII RNA expression. Nature of the test: Quantitative real-time PCR of TGF-βRII transcripts in CD4+CD25- T cells. The following applies: coated anti-CD3 (200 ng/ml) and ligand (5 μg/ml) for 3 hours. The protocol: FIG. 3: TGF-βRII expression on effector T cells after NOTCH ligands exposure • A) CD4^+CD25^−T cells were purified using Miltenyi microbeads from PBMC and cultured for 3 hours in coated wells with anti-CD3 (200 ng/ml) and NOTCH ligands (5 μg/ml) or IgG control (5 μg/ml). Quantitative real-time PCR was performed to measure the transcripts levels of TGF-βRII. Data shown are mean±SEM and are representative of 4 independent experiments. * indicates P<0.05. • B) Protein levels of TGF-βRII in CD4^+CD25^−T cells stimulated to DL-1, DL-4 and Jagged-1 using FACS analysis. Mean of fluorescence are represented±SEM. * indicates P<0.05.
CD4^+CD25^− T cells were cultured for 3 hours in coated wells with anti-CD3 (200 ng/ml) and NOTCH ligands (5 μg/ml) or IgG control (5 μg/ml). Total RNA was extracted with Trizol (Invitrogen) and purified by chloroform extraction. RNA was then reverse transcribed using 1 mM oligodT and the Superscript™ HH Rnase H-reverse transcriptase (Invitrogen Life technologies) according to the manufacturer's instructions. Quantitative PCR was performed in a LightCycler System (Roche diagnostics) using a SYBR Green PCR kit from Roche Diagnostics. The cDNA input for each population was normalized to obtain equivalent signals with Splicing Factor 3A1 (SF3A1) used as housekeeping gene. Primers used were: […]
Active TGF-β mediates its biological functions by binding to TGF-β type I and type II receptors (TGF-βRII). Therefore, the effects of NOTCH activation on TGF-βRII expression of effector T cells were first investigated. […] This effect is abrogated in the presence of GSI (P<0.05 for comparison with culture performed without GSI vehicle).
Background: Real-time PCR tracks product formation cycle by cycle.

Test [3] concerns pSmad3. Nature of the test: Immunoblot for pSmad3 in CD4+CD25- T cells. The following applies: 48 hours on coated ligand in the presence of TGF-β (5 ng/ml). How it is done: FIG. 4: TGF-βRII function on effector T cells stimulated to NOTCH ligands • A) Western blot analysis was performed on CD4^+CD25^−T cells cultured for 48 hours in coated wells with anti-CD3 (200 ng/ml) and NOTCH ligands (5 μg/ml) in presence of TGF-β (5 ng/ml). The whole cell lysate was analysed by immunoblot for pSmad3 and b-actin was used as loading control. The experiment was repeated twice with similar results. […] Cells were analyzed 48 hours later and data normalized for β-galactosidase activity. Histograms show the luciferase activity in a representative experiment performed in PC12 with TβRII promoter-luciferase construct. The experiment was repeated 3 times with similar results.
CD4^+CD25^− T cells were stimulated with NOTCH Ligand during 2 days. 1 ng/ml of TGF-β was also added during 30 min to induce Smad3 phosphorylation. Cells were collected, washed and lysed with Tris HCL (20 mM) 0.5% SDS buffer in presence of DNase (benzonase), inhibitors of phosphatase and protease. 10 μg proteins were deposed for Western blot Analysis with following Antibodies: Anti-PhosphoSmad3, Smad3, Actine.
Given the above observations showing an upregulation of TGF-βRII following NOTCH activation, the inventors hypothesized that Jagged-1 and DL-4 led to an activation of TGF-β signalling in effector T cells. […]

Data on 2 molecules can be found in patent US20150140043A1, “IMMUNOMODULATORY METHODS USING NOTCH AGONISTS” (INSTITUT NATIONAL DE LA SANTE DE LA RECHERCHE MEDICAL …, priority 2012, published 2015).

Consider “Jagged-1: recombinant NOTCH ligand Jagged-1, used coated as Jagged-1-Fc (SEQ ID NO: 5)”, for which the “Mean inhibition of T cell proliferation in the presence of anti-TGF-β mAbs” value in test [1] (coculture with Treg at ratio 1:16, immobilized ligand at 5 µg/mL, anti-TGF-β 2.5 µg/mL added at the beginning of the culture) is given as 19.3%. In addition, the “Mean inhibition of T cell proliferation” value in test [1] (coculture with Treg at ratio 1:16, immobilized ligand at 5 µg/mL, no anti-TGF-β) is given as 65%. In addition, in test [2], the “TGF-βRII RNA expression, increase compared to IgG control” value worked out at 2.8 fold. For the same molecule, in test [3], the “pSmad3 signal (immunoblot)” value is “strong pSmad3 signal”.

B1: DL-1: recombinant NOTCH ligand Delta-like 1, used coated as DL-1-Fc (SEQ ID NO: 8) (protein, listed as Homo sapiens)
chain: MGSRCALALAVLSALLCQVWSSGVFELKLQEFVNKKGLLGNRNCCRGGAGPPPCACRTFFRVCLKHYQASVSPEPPCTYGSAVTPVLGVDSFSLPDGGGADSAFSNPIRFPFGFTWPGTFSLIIEALHTDSPDDLATENPERLISRLATQRHLTVGEEWSQDLHSSGRTDLKYSYRFVCDEHYYGEGCSVFCRPRDDAFGHFTCGERGEKVCNPGWKGPYCTEPICLPGCDEQHGFCDKPGECKCRVGWQGRYCDECIRYPGCLHGTCQQPWQCNCQEGWGGLFCNQDLNYCTHHKPCKNGATCTNTGQGSYTCSCRPGYTGATCELGIDECDPSPCKNGGSCTDLENSYSCTCPPGFYGKICELSAMTCADGPCFNGGRCSDSPDGGYSCRCPVGYSGFNCEKKIDYCSSSPCSNGAKCVDLGDAYLCRCQAGFSGRHCDDNVDDCASSPCANGGTCRDGVNDFSCTCPPGYTGRNCSAPVSRCEHAPCHNGATCHERGHRYVCECARGYGGPNCQFLLPELPPGPAVVDLTEKLEGQGGPFPWVAVCAGVILVLMLLLGCAAVVVCVRLRLQKHRPPADPCRGETETMNNLANCQREKDISVSIIGATQIKNTNKKADFHGDHSADKNGFKARYPAVDYNLVQDLKGDDTAVRDAHSKRDTKCQPQGSSGEEKGTPTTLRGGEASERKRPDSGCSTSKDTKYQSVYVISEEKDECVIATEV
Take B1: the “Effect of anti-TGF-β on coculture of Treg and ligand-treated effector T cells” value in test [1] (Treg ratio 1:16, anti-TGF-β 2.5 μg/ml) is on record as “did not affect”. Moreover, in test [2], the “TGF-βRII RNA expression, increase compared to IgG control” value is listed as “did not significantly modify”. In addition, in test [3], the “pSmad3 signal (immunoblot)” value is recorded as “weak pSmad3 signal”.
